Results published in ChEMBL document CHEMBL4706547, “Discovery and structure-activity relationship studies of 1-aryl-1H-naphtho[2,3-d][1,2,3]triazole-4,9-dione derivatives as potent dual inhibitors of indoleamine 2,3-dioxygenase 1 (IDO1) and trytophan 2,3-dioxygenase (TDO)” (Eur J Med Chem, 2020).
In brackets after ≈: the same amount, converted by molar mass. Activity calls are given as the source filed them. No cut-off for these calls is given here.

Experiments:
[1] = target: T1, Indoleamine 2,3-dioxygenase 1 (Homo sapiens, UniProt P14902)
T1 sequence (P14902 whole entry): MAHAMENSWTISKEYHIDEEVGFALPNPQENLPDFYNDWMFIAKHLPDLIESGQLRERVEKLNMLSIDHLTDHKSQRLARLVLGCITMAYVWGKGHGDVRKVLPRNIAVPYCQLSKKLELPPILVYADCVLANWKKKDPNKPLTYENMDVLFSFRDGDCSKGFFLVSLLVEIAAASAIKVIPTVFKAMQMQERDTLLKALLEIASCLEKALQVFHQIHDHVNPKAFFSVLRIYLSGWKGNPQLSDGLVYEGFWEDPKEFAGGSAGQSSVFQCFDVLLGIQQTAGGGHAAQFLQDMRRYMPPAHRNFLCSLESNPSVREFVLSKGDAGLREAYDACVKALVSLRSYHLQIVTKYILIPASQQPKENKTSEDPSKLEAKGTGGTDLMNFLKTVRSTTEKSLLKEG

[2] = target: T2, Tryptophan 2,3-dioxygenase (Homo sapiens, UniProt P48775); experiment: Inhibition of TDO (unknown origin) assessed as reduction in L-kynurenine formation using L-tryptophan as substrate incubated for 30 mins microplate spectrophotometry analysis
T2 sequence (P48775 whole entry): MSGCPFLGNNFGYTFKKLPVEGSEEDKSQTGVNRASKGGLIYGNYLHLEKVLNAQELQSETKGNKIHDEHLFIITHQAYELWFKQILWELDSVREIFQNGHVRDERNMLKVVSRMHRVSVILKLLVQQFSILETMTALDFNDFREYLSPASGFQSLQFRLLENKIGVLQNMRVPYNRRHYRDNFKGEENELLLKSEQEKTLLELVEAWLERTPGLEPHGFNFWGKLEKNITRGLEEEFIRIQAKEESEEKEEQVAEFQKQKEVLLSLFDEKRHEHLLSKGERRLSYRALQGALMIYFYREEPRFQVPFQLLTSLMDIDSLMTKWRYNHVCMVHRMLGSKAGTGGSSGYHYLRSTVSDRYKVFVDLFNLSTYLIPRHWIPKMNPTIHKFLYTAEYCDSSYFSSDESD

[3] = Antitumor activity against […] cells allografted in C57BL/6 mouse assessed as tumor growth inhibition at 30 mg/kg, ip administered for 11 days and measured upto 20 days relative to control; format: functional; conditions: Hepa1-6, ip, time day <=20, read-out: TGI
LL2 = conditions: dose 30.0 mg/kg, time day <=20
[4] = target: T2, Tryptophan 2,3-dioxygenase; experiment: Inhibition of TDO in human A 172 cells assessed as reduction in L-kynurenine formation using L-tryptophan as substrate incubated for 24 hrs; format: cell-based
[5] = Solubility of compound; format: physicochemical
[6] = Redox activity of compound assessed as increase in H2O2 production at > 50 uM incubated for 15 mins by HRP-PR staining based fluorometric analysis relative to control; format: physicochemical; conditions: 0.25 h
[7] = Toxicity in C57BL/6 mouse […] with […] cells assessed as effect on body weight at 30 mg/kg, ip administered for 11 days and measured upto 20 days; format: organism-based; conditions: in vivo, time <=20 day
[8] = target: T1, Indoleamine 2,3-dioxygenase 1; experiment: Inhibition of IDO1 in IFN-gamma-induced human HeLa cells assessed as reduction in L-kynurenine formation using L-tryptophan as substrate incubated for 24 hrs
[9] = Toxicity in C57BL/6 mouse […] with […] cells assessed as effect on body weight at 30 mg/kg, ip administered for 11 days and measured upto 20 days; format: organism-based; conditions: in vivo, time <=20 day
[10] = Redox activity of compound assessed as increase in H2O2 production incubated for 15 mins by HRP-PR staining based fluorometric analysis; format: physicochemical; conditions: 0.25 h
[11] = Antitumor activity against […] cells allografted in C57BL/6 mouse assessed as tumor growth inhibition at 30 mg/kg, ip administered for 11 days and measured upto 20 days relative to control; format: functional; conditions: LL/2, ip, time day <=20, read-out: TGI

| SMILES | IC50 [1] [nM] | IC50 [2] [nM] | also measured |
| --- | --- | --- | --- |
| O=C1c2cc(O)ccc2C(=O)c2c1nnn2-c1ccc(F)c(Cl)c1 | 144 | 171 |  |
| O=C1c2ccccc2C(=O)c2c1nnn2-c1cccc(Cl)c1 | 40 | 36 |  |
| COC(=O)c1ccc(-n2nnc3c2C(=O)c2ccccc2C3=O)cc1 | 34 | 58 |  |
| O=C1c2ccccc2C(=O)c2c1nnn2-c1cnc(Cl)c(Cl)c1 | 113 | 248 |  |
| NS(=O)(=O)NCCNc1nonc1/C(=N/O)Nc1ccc(F)c(Br)c1 [EPACADOSTAT] |  |  | inhibition in vivo at 30 mg/kg [3]: 50%; TGI (LL2): Active |
| O=C1c2ccccc2C(=O)c2c1nnn2-c1cccc([N+](=O)[O-])c1 | 29 | 28 |  |
| O=C1c2ccccc2C(=O)c2c1nnn2-c1ccc([N+](=O)[O-])cc1 | 33 | 48 |  |
| O=C1c2ccccc2C(=O)c2c1nnn2-c1ccc(Cl)c(Cl)c1 | 23 | 18 |  |
| O=C1c2ccccc2C(=O)c2c1nnn2Cc1ccccc1 | 886 | 858 |  |
| O=C1c2ccccc2C(=O)c2c1nnn2-c1ccc(Cl)nc1 | 27 | 25 |  |
| O=C1c2ccccc2C(=O)c2c1nnn2-c1ccc(Cl)cc1 | 23 | 15 |  |
| NS(=O)(=O)c1ccc(-n2nnc3c2C(=O)c2ccccc2C3=O)cc1 | 30 | 48 |  |
| O=C1c2ccccc2C(=O)c2c1nnn2-c1cccc(F)c1 | 52 | 101 |  |
| O=C1c2ccccc2C(=O)c2c1nnn2-c1ccc2ccncc2c1 | 40 | 34 |  |
| O=C1c2ccccc2C(=O)c2c1nnn2-c1cc(Cl)c(F)c(Cl)c1 | 33 | 34 |  |
| O=C1c2cc(F)ccc2C(=O)c2c1nnn2-c1ccc(F)c(Cl)c1 | 5 | 4 | IC50 [4]: 59 nM; solubility [5]: 0.16 µM (≈ 0.0553 µg/mL); Activity [6]: Not Active; Activity [7]: Non-Toxic; IC50 [8]: 98 nM; inhibition in vivo at 30 mg/kg [3]: 80%; Activity [9]: Non-Toxic; Activity [10]: Not Active; inhibition in vivo at 30 mg/kg [11]: 62.5% |
| O=C1c2ccc(O)cc2C(=O)c2c1nnn2-c1ccc(F)c(Cl)c1 | 355 | 384 |  |
| O=C1c2ccccc2C(=O)c2c1nnn2-c1ccc2[nH]ncc2c1 | 45 | 42 |  |
| NS(=O)(=O)NCCNc1nonc1C(=NO)Nc1ccc(F)c(Br)c1 [EPACADOSTAT] |  | > 10000 |  |
| O=C1c2ccccc2C(=O)c2c1nnn2-c1ccc(C(F)(F)F)c(Cl)c1 | 30 | 25 |  |
| O=C1c2ccccc2C(=O)c2c1nnn2-c1ccc2[nH]cnc2c1 | 78 | 104 |  |
| O=C1c2ccc(F)cc2C(=O)c2c1nnn2-c1ccc(F)c(Cl)c1 | 10 | 10 |  |
| COc1ccc2c(c1)C(=O)c1c(nnn1-c1ccc(F)c(Cl)c1)C2=O | > 10000 | > 10000 |  |
| O=C1c2ccccc2C(=O)c2c1nnn2-c1ccc(F)c(Cl)c1 | 13 | 14 |  |

More lines, main results first:

| IC50 [1] [nM] | IC50 [2] [nM] | SMILES | also measured |
| --- | --- | --- | --- |
| 23 | 21 | O=C1c2ccccc2C(=O)c2c1nnn2-c1cccnc1 |  |
| 122 | 64 | Cc1cccc(-n2nnc3c2C(=O)c2ccccc2C3=O)c1 |  |
| 58 | 49 | O=C1c2ccccc2C(=O)c2c1nnn2-c1ccc(F)cc1 |  |
| > 10000 | > 10000 | O=C1c2ccccc2C(=O)c2c1nnn2-c1ccccc1Cl |  |
| 114 | 71 | O=C(O)c1cccc(-n2nnc3c2C(=O)c2ccccc2C3=O)c1 |  |
| 163 | 105 | COc1ccc2c(c1)C(=O)c1nnn(-c3ccc(F)c(Cl)c3)c1C2=O |  |
| 15 | 15 | O=C1c2ccccc2C(=O)c2c1nnn2-c1ccc(Cl)c([N+](=O)[O-])c1 |  |
| 26 | 66 | N#Cc1ccc(-n2nnc3c2C(=O)c2ccccc2C3=O)cc1 |  |
| 20 | 18 | O=C1c2ccccc2C(=O)c2c1nnn2-c1ccc(Cl)c(F)c1 |  |
| 100 | 70 | O=C1c2ccccc2C(=O)c2c1nnn2-c1ccccc1 |  |
| 658 |  | CN1CCN(C(=O)c2cccc(Cn3nnc4c3C(=O)c3ccccc3C4=O)c2)CC1 |  |
| > 10000 | > 10000 | CN1CCN(c2ccc(-n3nnc4c3C(=O)c3ccccc3C4=O)cc2)CC1 |  |
| 60 | 25 | O=C1c2ccccc2C(=O)c2c1nnn2-c1ccc(-c2nnn[nH]2)cc1 |  |
| 81 | 132 | CC(=O)Nc1cccc(-n2nnc3c2C(=O)c2ccccc2C3=O)c1 |  |
